Reference: paper PMC11995216, “End-to-End Backbone Cyclization Enhances Passive Permeability of bRo5 Oligomeric Depsipeptides with Nonlinear Size Dependence” (ACS Medicinal Chemistry Letters, 2025)
Several values for one entry are separate records, joined by “and”; a condition that tells them apart may be missing. Equal values may be shown once. Read-outs that look alike come from different tables or passages of the source. Non-standard residues stand in square brackets, D forms with d. Residues, ends and D or L forms follow the SMILES beside them. *: point of attachment. Ahp(2) = CCCCC[C@H](N)C(=O)O; dNMeA = CN[C@H](C)C(=O)O; Boc = CC(C)(C)OC(=O)*; OBn = c1ccc(CO*)cc1

Experiments:
[1] = PAMPA, 500 uM
[2] = calculated using Supplement Equation 1, UV detection
PAMPA [3] = conditions: UV detection
PAMPA [4] = conditions: UV detection, initial concentration 500 uM
[5] = initial concentration 500 uM, UV detection
[6] = UV detection
in vitro = conditions: PAMPA, Papp

CCCCC[C@H](NC(=O)[C@@H](C)N(C)C(=O)[C@H](CCCCC)NC(=O)[C@@H](C)N(C)C(=O)[C@H](CCCCC)NC(=O)[C@@H](C)N(C)C(=O)[C@H](CCCCC)NC(=O)[C@@H](C)N(C)C(=O)OC(C)(C)C)C(=O)OCc1ccccc1 [Compound L2.5] (Boc-[dNMeA][Ahp(2)][dNMeA][Ahp(2)][dNMeA][Ahp(2)][dNMeA][Ahp(2)]-OBn)
Acceptor Concentration, Ave [1]: 58.3 µM | Δ % diffusion [1]: ↑6% | %T ([2]; Well 1 / %T, Well 1): 0.61% and 0.63% | %T ([2]; Well 2 / %T, Well 2): 0.61% and 0.6% | %T ([2]; Well 3 / %T, Well 3): 0.58% and 0.63% | %T ([2]; Well 4 / %T, Well 4): 0.6% and 0.62% | %T ([2]; Well 5 / %T, Well 5): 0.61% and 0.64% | Papp (PAMPA [3]; Papp (x 10^-6 cm/s) / [row 1]): 2.47 ×10⁻⁶ cm/s | Papp (PAMPA [3]; Papp (x 10^-6 cm/s) / [row 2]): 2.25 ×10⁻⁶ cm/s | Papp (PAMPA [3]; Papp (x 10^-6 cm/s) / [row 3]): 2.11 ×10⁻⁶ cm/s | Papp (PAMPA [3]; Papp (x 10^-6 cm/s) / [row 4]): 2.43 ×10⁻⁶ cm/s | Papp (PAMPA [3]; Papp (x 10^-6 cm/s) / [row 5]): 2.68 ×10⁻⁶ cm/s | Papp (PAMPA [3]; Papp (x 10^-6 cm/s) / [row 6]): 3.13 ×10⁻⁶ cm/s | Papp (PAMPA [3]; Papp (x 10^-6 cm/s) / [row 7]): 2.4 ×10⁻⁶ cm/s | Papp (PAMPA [3]; Papp (x 10^-6 cm/s) / [row 8]): 2.43 ×10⁻⁶ cm/s | Papp (PAMPA [3]; Papp (x 10^-6 cm/s) / [row 9]): 2.64 ×10⁻⁶ cm/s | Papp (PAMPA [3]; Papp (x 10^-6 cm/s) / [row 10]): 2.27 ×10⁻⁶ cm/s | Acceptor Concentration (PAMPA [4]; Acceptor Concentration (uM) / [row 1]): 55.5 µM | Acceptor Concentration (PAMPA [4]; Acceptor Concentration (uM) / [row 2]): 54.4 µM | Acceptor Concentration (PAMPA [4]; Acceptor Concentration (uM) / [row 3]): 52.1 µM | Acceptor Concentration (PAMPA [4]; Acceptor Concentration (uM) / [row 4]): 59 µM | Acceptor Concentration (PAMPA [4]; Acceptor Concentration (uM) / [row 5]): 58.4 µM | Acceptor Concentration (PAMPA [4]; Acceptor Concentration (uM) / [row 6]): 67.8 µM | Acceptor Concentration (PAMPA [4]; Acceptor Concentration (uM) / [row 7]): 57.4 µM | Acceptor Concentration (PAMPA [4]; Acceptor Concentration (uM) / [row 8]): 59.8 µM | Acceptor Concentration (PAMPA [4]; Acceptor Concentration (uM) / [row 9]): 61.8 µM | Acceptor Concentration (PAMPA [4]; Acceptor Concentration (uM) / [row 10]): 56.8 µM | donor concentration after incubation ([5]; Well 1 / [donor], Well 1): 362 µM and 345 µM | donor concentration after incubation ([5]; Well 2 / [donor], Well 2): 391 µM and 386 µM | donor concentration after incubation ([5]; Well 3 / [donor], Well 3): 400 µM and 397 µM | donor concentration after incubation ([5]; Well 4 / [donor], Well 4): 391 µM and 376 µM | donor concentration after incubation ([5]; Well 5 / [donor], Well 5): 351 µM and 405 µM | % recovery ([6]; Well 1 / %R, Well 1): 84% and 83% | % recovery ([6]; Well 2 / %R, Well 2): 89% | % recovery ([6]; Well 3 / %R, Well 3): 90% and 91% | % recovery ([6]; Well 4 / %R, Well 4): 90% | % recovery ([6]; Well 5 / %R, Well 5): 82% and 92%

CCCCC[C@H](OC(=O)[C@@H](C)N(C)C(=O)[C@H](CCCCC)OC(=O)[C@@H](C)N(C)C(=O)[C@H](CCCCC)OC(=O)[C@@H](C)N(C)C(=O)OC(C)(C)C)C(=O)OCc1ccccc1 [Compound L1.3]
LogPapp [1]: -5.45 ± 0.02 | Δ % diffusion [1]: ↑3% | %T ([2]; Well 1 / %T, Well 1): 0.44% and 0.49% | %T ([2]; Well 2 / %T, Well 2): 0.47% and 0.46% | %T ([2]; Well 3 / %T, Well 3): 0.46% | %T ([2]; Well 4 / %T, Well 4): 0.49% and 0.46% | %T ([2]; Well 5 / %T, Well 5): 0.47% and 0.43% | Papp (PAMPA [3]; Papp (x 10^-6 cm/s) / experiment 1): 3.86 ×10⁻⁶ cm/s | Papp (PAMPA [3]; Papp (x 10^-6 cm/s) / experiment 2): 3.52 ×10⁻⁶ cm/s | Papp (PAMPA [3]; Papp (x 10^-6 cm/s) / experiment 3): 3.52 ×10⁻⁶ cm/s | Papp (PAMPA [3]; Papp (x 10^-6 cm/s) / experiment 4): 3.49 ×10⁻⁶ cm/s | Papp (PAMPA [3]; Papp (x 10^-6 cm/s) / experiment 5): 3.18 ×10⁻⁶ cm/s | Papp (PAMPA [3]; Papp (x 10^-6 cm/s) / experiment 6): 3.34 ×10⁻⁶ cm/s | Papp (PAMPA [3]; Papp (x 10^-6 cm/s) / experiment 7): 3.62 ×10⁻⁶ cm/s | Papp (PAMPA [3]; Papp (x 10^-6 cm/s) / experiment 8): 3.46 ×10⁻⁶ cm/s | Papp (PAMPA [3]; Papp (x 10^-6 cm/s) / experiment 9): 3.83 ×10⁻⁶ cm/s | Papp (PAMPA [3]; Papp (x 10^-6 cm/s) / experiment 10): 3.57 ×10⁻⁶ cm/s | Acceptor Concentration (PAMPA [4]; Acceptor Concentration (uM) / experiment 1): 84.1 µM | Acceptor Concentration (PAMPA [4]; Acceptor Concentration (uM) / experiment 2): 80.7 µM | Acceptor Concentration (PAMPA [4]; Acceptor Concentration (uM) / experiment 3): 74.5 µM | Acceptor Concentration (PAMPA [4]; Acceptor Concentration (uM) / experiment 4): 72.5 µM | Acceptor Concentration (PAMPA [4]; Acceptor Concentration (uM) / experiment 5): 68.1 µM | Acceptor Concentration (PAMPA [4]; Acceptor Concentration (uM) / experiment 6): 71.8 µM | Acceptor Concentration (PAMPA [4]; Acceptor Concentration (uM) / experiment 7): 84 µM | Acceptor Concentration (PAMPA [4]; Acceptor Concentration (uM) / experiment 8): 79 µM | Acceptor Concentration (PAMPA [4]; Acceptor Concentration (uM) / experiment 9): 81.4 µM | Acceptor Concentration (PAMPA [4]; Acceptor Concentration (uM) / experiment 10): 75.6 µM | Papp at 500 uM (in vitro): 3.54 ± 0.2 ×10⁻⁶ cm/s | donor concentration after incubation ([5]; Well 1 / [donor], Well 1, standard curve): 358 µM | donor concentration after incubation ([5]; Well 2 / [donor], Well 2, standard curve): 382 µM and 379 µM | donor concentration after incubation ([5]; Well 3 / [donor], Well 3, standard curve): 378 µM and 351 µM | donor concentration after incubation ([5]; Well 4 / [donor], Well 4, standard curve): 350 µM and 346 µM | donor concentration after incubation ([5]; Well 5 / [donor], Well 5, standard curve): 351 µM and 360 µM | % recovery ([6]; Well 1 / %R, Well 1): 86% and 89% | % recovery ([6]; Well 2 / %R, Well 2): 93% and 92% | % recovery ([6]; Well 3 / %R, Well 3): 91% and 85% | % recovery ([6]; Well 4 / %R, Well 4): 86% and 84% | % recovery ([6]; Well 5 / %R, Well 5): 85% and 86%
